From patent US20250197387A1, “BCL-XL DEGRADERS AND USES THEREOF” (Kymera Therapeutics, Inc., priority 2021, published 2025)

Columns and labels:
BCL-XL [1] = biological target: T1, BCL-XL (Homo sapiens, UniProt Q07817); assay: BCL-XL degradation assay, western blot in MOLT-4 cells, 16 h; type: cell-based; details: western blot, MOLT-4 cells, 16 h; for Dmax: read-out: Bcl-xL WB in MOLT-4 degradation 16 h: Average Dmax %; for DC50: read-out: Bcl-xL WB in MOLT-4 degradation 16 h: Mean external-Abs DC50
T1 construct: endogenous in cells; host or cells: MOLT-4
Procedure: Compounds treatment: compounds were reconstituted in DMSO to make a stock concentration of 10 mM. MOLT-4 cells were maintained in RPMI-1640+10% FBS+1% Penicillin-Streptomycin. Cells were seeded into 6-well plates in 2 mL at the seeding density of 2e6 cells/mL. Compounds were added to the cells to a final concentration ranging 0.02-10 μM. After 16 hr incubation at 37° C., in a CO2 incubator, cells were collected in an Eppendorf tube and centrifuged at 200×g for 5 minutes, the supernatant removed and pellets washed with ice-cold PBS, centrifuged and supernatant removed again. Then. 50 μl of pre-chilled RIPA lysis buffer (Boston BioProducts. BP-115D) with protease and phosphatase inhibitors (Roche Applied Science. #04906837001 and #04693116001) was added into cell pellet to lyze the cells for 20 minutes under 4° C. Cell lysates were spin at 13000 rpm for 10 minutes. Supernatants were collected and protein concentration was measured by BCA assay kit (Solarbio. PC0020-500) following the manufacturer's protocol. Samples' final protein concentration was adjusted to 3.75 μg/uL with the RIPA lysis buffer based on BCA assay results and 4× loading buffer (Invitrogen. NP0007) was added into the samples and samples were heated to 85° C., for 10 min and then let cool at RT. Samples were centrifuged at 13000 rpm for 10 min and then loaded into a 26-well NuPAGER. Novex 4-12% Bis-Tris Midi Gel (Invitrogen. WG1403BOX) and run in NuPAGER MOPS SDS Running Buffer (Invitrogen. NP0001) for 180 minutes at 70 V into a XCell4 SureLock™ Midi-Cell Runner (Invitrogen. WR0100). Gel were transferred using the Invitrogen iBlot gel transfer device (Invitrogen. IB21001) and the nitrocellulose transfer stacks (Invitrogen, IB23001) with Program PO for 9 minutes. The membrane was then blocked with 5% bovin serum albumin for 1 hr at RT, then incubated with primary antibodies diluted in blocking buffer (LI-COR. 927-60001) and shake at 4° C., overnight. The primary antibodies were anti-BCL-xL antibody (CST. 2762:1:1000), anti-beta-actin (CST. 3700; 1:5000) and anti-GAPDH (CST. 97166:1:5000). Membranes were then washed three times with PBST for 15 minutes at RT. Secondary antibodies IR-Dye 680 CW Goat anti Mouse IgG (LI-COR. 926-68070) and IR-Dye 800 CW Goat anti Rabbit IgG (LI-COR. 926-32211) were diluted at a ratio of 1:10000 into PBST and membranes incubated for 1 hour at RT. Membranes were then washed three times with PBST for 15 minutes at RT. The western blot images were obtained using Odyssey Imaging System and quantified using Image Studio Lite Ver 5.2 software.
(§1) The letter codes for BCL-XL DC50 include: A (<0.01 μM); B (0.01-0.1 μM); C (>[…]); D (>0.5-1.0 μM); and E (>1.0 μM). The letter codes for Dmax % include A (>75%); B (50 to 75%); C (<50%).

BCL-XL [2] = biological target: T1, BCL-XL; assay: Bcl-xL ELISA degradation in MOLT-4 cells, 6 h; type: cell-based; details: for DC50: read-out: Bcl-xL ELISA in MOLT-4 degradation 6 h: Mean external-Abs DC50
Procedure: as §1

T1 sequence (Q07817 whole entry): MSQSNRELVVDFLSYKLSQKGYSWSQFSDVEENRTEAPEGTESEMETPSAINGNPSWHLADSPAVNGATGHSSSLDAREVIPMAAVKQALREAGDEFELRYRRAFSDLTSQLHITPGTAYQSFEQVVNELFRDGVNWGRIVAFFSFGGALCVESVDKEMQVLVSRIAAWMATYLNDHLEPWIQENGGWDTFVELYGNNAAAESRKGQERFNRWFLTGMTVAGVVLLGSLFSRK

Row | Compound | Dmax (BCL-XL [1]) | DC50 (BCL-XL [1]) | Dmax (BCL-XL [2]) | DC50 (BCL-XL [2])
1 | Cc1ncsc1-c1ccc([C@H](C)NC(=O)[C@@H]2C[C@@H](O)CN2C(=O)[C@@H](NC(=O)CCCCCCCCC(=O)N2CCN(CC[C@H](CSc3ccccc3)Nc3ccc(S(=O)(=O)NC(=O)c4ccc(N5CCN(CC6=C(c7ccc(Cl)cc7)CCC(C)(C)C6)CC5)cc4)cc3S(=O)(=O)C(F)(F)F)CC2)C(C)(C)C)cc1 [I-1, (2S,4R)-1-((S)-2-(10-(4-((R)-3-((4-(N-(4-(4-((4′-chloro-4,4-dimethyl-3,4,5,6-tetrahydro-[1,1′-biphenyl]-2-yl)methyl)piperazin-1-yl)benzoyl)sulfamoyl)-2-((trifluoromethyl)sulfonyl)phenyl)amino)-4-(phenylthio)butyl)piperazin-1-yl)-10-oxodecanamido)-3,3-dimethylbutanoyl)-4-hydroxy-N-((S)-1-(4-(4-methylthiazol-5-yl)phenyl)ethyl)pyrrolidine-2-carboxamide] | > 75% | 100 to 500 nM | – | –
2 | Cc1ncsc1-c1ccc([C@H](C)NC(=O)[C@@H]2C[C@@H](O)CN2C(=O)[C@@H](NC(=O)CCCC(=O)N(C)CC#Cc2ccc(OCCCc3sc(N4CCc5cccc(C(=O)Nc6nc7ccccc7s6)c5C4)nc3C(=O)O)c(F)c2)C(C)(C)C)cc1 [I-2] | > 75% | 100 to 500 nM | – | –
3 | Cc1ncsc1-c1ccc([C@H](C)NC(=O)[C@@H]2C[C@@H](O)CN2C(=O)[C@@H](NC(=O)CCCCCC(=O)N(C)CC#Cc2ccc(OCCCc3sc(N4CCc5cccc(C(=O)Nc6nc7ccccc7s6)c5C4)nc3C(=O)O)c(F)c2)C(C)(C)C)cc1 [I-3] | > 75% | 10 to 100 nM | – | –
4 | Cc1ncsc1-c1ccc(CNC(=O)[C@@H]2C[C@@H](O)CN2C(=O)[C@@H](NC(=O)C2(F)CC2)C(C)(C)C)c(OCCCC(=O)N(C)CC#Cc2ccc(OCCCc3sc(N4CCc5cccc(C(=O)Nc6nc7ccccc7s6)c5C4)nc3C(=O)O)c(F)c2)c1 [I-6] | > 75% | 100 to 500 nM | – | –
5 | Cc1ncsc1-c1ccc(CNC(=O)[C@@H]2C[C@@H](O)CN2C(=O)[C@@H](NC(=O)C2(F)CC2)C(C)(C)C)c(OCCCCCC(=O)N(C)CC#Cc2ccc(OCCCc3sc(N4CCc5cccc(C(=O)Nc6nc7ccccc7s6)c5C4)nc3C(=O)O)c(F)c2)c1 [I-7] | 50 to 75% | 500 to 1000 nM | – | –
6 | Cc1ncsc1-c1ccc([C@H](C)NC(=O)[C@@H]2C[C@@H](O)CN2C(=O)[C@@H](NC(=O)CCCC(=O)N(C)CCCc2cccc(F)c2OCCCc2sc(N3CCc4cccc(C(=O)Nc5nc6ccccc6s5)c4C3)nc2C(=O)O)C(C)(C)C)cc1 [I-9] | > 75% | 100 to 500 nM | – | –
7 | Cc1ncsc1-c1ccc([C@H](C)NC(=O)[C@@H]2C[C@@H](O)CN2C(=O)[C@@H](NC(=O)CCCCCC(=O)N(C)CCCc2cccc(F)c2OCCCc2sc(N3CCc4cccc(C(=O)Nc5nc6ccccc6s5)c4C3)nc2C(=O)O)C(C)(C)C)cc1 [I-10] | > 75% | 100 to 500 nM | – | –
8 | Cc1ncsc1-c1ccc([C@H](C)NC(=O)[C@@H]2C[C@@H](O)CN2C(=O)[C@@H](NC(=O)CCCCCCCC(=O)N(C)CCCc2cccc(F)c2OCCCc2sc(N3CCc4cccc(C(=O)Nc5nc6ccccc6s5)c4C3)nc2C(=O)O)C(C)(C)C)cc1 [I-11] | > 75% | 100 to 500 nM | – | –
9 | Cc1ncsc1-c1ccc(CNC(=O)[C@@H]2C[C@@H](O)CN2C(=O)[C@@H](NC(=O)C2(F)CC2)C(C)(C)C)c(OCCCC(=O)N(C)CCCc2cccc(F)c2OCCCc2sc(N3CCc4cccc(C(=O)Nc5nc6ccccc6s5)c4C3)nc2C(=O)O)c1 [I-12] | 50 to 75% | 500 to 1000 nM | – | –
10 | Cc1ncsc1-c1ccc([C@H](C)NC(=O)[C@@H]2C[C@@H](O)CN2C(=O)[C@@H](NC(=O)C2CC3CCC(C2)N3c2ccc(S(=O)(=O)NC(=O)c3nc(N4CCc5cccc(C(=O)Nc6nc7ccccc7s6)c5C4)ccc3-c3cnn(CC4CCCCC4)c3C)cc2)C(C)(C)C)cc1 (some centres unmarked) [I-278] | – | – | > 75% | 10 to 100 nM

More lines, now with the values ahead:

Row | Dmax (BCL-XL [1]) | DC50 (BCL-XL [1]) | Dmax (BCL-XL [2]) | DC50 (BCL-XL [2]) | Compound
11 | < 50% | > 1000 nM | – | – | Cc1ncsc1-c1ccc(CNC(=O)[C@@H]2C[C@@H](O)CN2C(=O)[C@@H](NC(=O)C2(F)CC2)C(C)(C)C)c(O[C@H]2CC[C@H](N3CCN(CC[C@H](CSc4ccccc4)Nc4ccc(S(=O)(=O)NC(=O)c5ccc(N6CCN(CC7=C(c8ccc(Cl)cc8)CCC(C)(C)C7)CC6)cc5)cc4S(=O)(=O)C(F)(F)F)CC3)CC2)c1 (single isomer, unassigned) [I-114]
12 | < 50% | > 1000 nM | – | – | Cc1ncsc1-c1ccc(CNC(=O)[C@@H]2C[C@@H](O)CN2C(=O)[C@@H](NC(=O)C2(F)CC2)C(C)(C)C)c(O[C@H]2CC[C@@H](N3CCN(CC[C@H](CSc4ccccc4)Nc4ccc(S(=O)(=O)NC(=O)c5ccc(N6CCN(CC7=C(c8ccc(Cl)cc8)CCC(C)(C)C7)CC6)cc5)cc4S(=O)(=O)C(F)(F)F)CC3)CC2)c1 (single isomer, unassigned) [I-115]
13 | – | – | > 75% | < 10 nM | Cc1cc([C@@H](C(=O)N2C[C@H](O)C[C@H]2C(=O)NCc2ccc(-c3scnc3C)cc2OCCCN2CCN(C(=O)c3nc(N4CCc5cccc(C(=O)Nc6nc7ccccc7s6)c5C4)ccc3-c3cnn(CC4CCCCC4)c3C)CC2)C(C)C)on1 [I-268]
14 | – | – | < 50% | > 1000 nM | Cc1ncsc1-c1ccc(CNC(=O)N2C[C@@H](O)CC2C(=O)[C@@H](NC(=O)C2(F)CC2)C(C)(C)C)c(O[C@H]2C[C@H](N3CCC(NC(=O)c4nc(N5CCc6cccc(C(=O)Nc7nc8ccccc8s7)c6C5)ccc4-c4cnn(CC5CCCCC5)c4C)CC3)C2)c1 (some centres unmarked) [I-269]
15 | – | – | < 50% | > 1000 nM | Cc1ncsc1-c1ccc(CNC(=O)[C@@H]2C[C@@H](O)CN2C(=O)[C@@H](NC(=O)C2(F)CC2)C(C)(C)C)c(N2CCC(N3CCC(NC(=O)c4nc(N5CCc6cccc(C(=O)Nc7nc8ccccc8s7)c6C5)ccc4-c4cnn(CC5CCCCC5)c4C)CC3)CC2)c1 [I-270]
16 | – | – | > 75% | 10 to 100 nM | Cc1ncsc1-c1ccc([C@H](C)NC(=O)[C@@H]2C[C@@H](O)CN2C(=O)[C@@H](c2cc(OC3CN(CCCS(=O)(=O)NC(=O)c4nc(N5CCc6cccc(C(=O)Nc7nc8ccccc8s7)c6C5)ccc4-c4cnn(CC5CCCCC5)c4C)C3)no2)C(C)C)cc1 [I-271]
17 | – | – | > 75% | < 10 nM | Cc1cc(S(=O)(=O)NC(=O)c2nc(N3CCc4cccc(C(=O)Nc5nc6ccccc6s5)c4C3)ccc2-c2cnn(CC3CCCCC3)c2C)ccc1N1CCC(C(=O)N[C@H](C(=O)N2C[C@H](O)C[C@H]2C(=O)N[C@@H](C)c2ccc(-c3scnc3C)cc2)C(C)(C)C)CC1 [I-273]
18 | – | – | 50 to 75% | 10 to 100 nM | Cc1ncsc1-c1ccc([C@H](C)NC(=O)[C@@H]2C[C@@H](O)CN2C(=O)[C@@H](NC(=O)C2CCN(c3ccc(S(=O)(=O)NC(=O)c4nc(N5CCc6cccc(C(=O)Nc7nc8ccccc8s7)c6C5)ccc4-c4cnn(CC5CCCCC5)c4C)cc3Cl)CC2)C(C)(C)C)cc1 [I-274]
19 | – | – | > 75% | 10 to 100 nM | Cc1ncsc1-c1ccc([C@H](C)NC(=O)[C@@H]2C[C@@H](O)CN2C(=O)[C@@H](NC(=O)C2CCN(c3ccc(S(=O)(=O)NC(=O)c4nc(N5CCc6cccc(C(=O)Nc7nc8ccccc8s7)c6C5)ccc4-c4cnn(CC5CCCCC5)c4C)c(Cl)c3)CC2)C(C)(C)C)cc1 [I-276]
20 | – | – | < 50% | – | Cc1ncsc1-c1ccc(CNC(=O)[C@@H]2C[C@@H](O)CN2C(=O)[C@@H](NC(=O)C2(F)CC2)C(C)(C)C)c(OC2CCN(CC[C@H](CSc3ccccc3)Nc3ccc(S(=O)(=O)NC(=O)c4ccc(N5CCN(CC6=C(c7ccc(Cl)cc7)CCC(C)(C)C6)CC5)cc4)cc3S(=O)(=O)C(F)(F)F)CC2)c1 [I-281]
21 | – | – | 50 to 75% | 100 to 500 nM | Cc1cc(C(C(=O)N2C[C@H](O)C[C@H]2C(=O)NCc2ccc(-c3scnc3C)cc2OCCN2CCN(CC[C@H](CSc3ccccc3)Nc3ccc(S(=O)(=O)NC(=O)c4ccc(N5CCN(CC6=C(c7ccc(Cl)cc7)CCC(C)(C)C6)CC5)cc4)cc3S(=O)(=O)C(F)(F)F)CC2)C(C)C)on1 (some centres unmarked) [I-282]
